ChEMBL document CHEMBL4609983, “Pan-specific and partially selective dye-labeled peptidic inhibitors of the polycomb paralog proteins” (Bioorg Med Chem, 2020)
Non-standard residues stand in square brackets, D forms with d. Residues, ends and D or L forms follow the SMILES beside them. *: point of attachment. X1 = O=C(O)c1cc(NC(=S)*)ccc1-c1c2ccc(=O)cc-2oc2cc(O)ccc12; Lys(Me3) = C[N+](C)(C)CCCC[C@H](N)C(=O)O; Benzoyl(4-Br) = O=C(c1ccc(Br)cc1)*; Gly(cPent) = N[C@H](C(=O)O)C1CCCC1; Abu = CC[C@H](N)C(=O)O; βAla = NCCC(=O)O

Tests used:
[1] = target: T1, Chromobox protein homolog 2 (Homo sapiens, UniProt Q14781); assay: Binding affinity to CBX2 (unknown origin) assessed as dissociation constant by fluorescence polarization analysis
T1 sequence (Q14781 whole entry): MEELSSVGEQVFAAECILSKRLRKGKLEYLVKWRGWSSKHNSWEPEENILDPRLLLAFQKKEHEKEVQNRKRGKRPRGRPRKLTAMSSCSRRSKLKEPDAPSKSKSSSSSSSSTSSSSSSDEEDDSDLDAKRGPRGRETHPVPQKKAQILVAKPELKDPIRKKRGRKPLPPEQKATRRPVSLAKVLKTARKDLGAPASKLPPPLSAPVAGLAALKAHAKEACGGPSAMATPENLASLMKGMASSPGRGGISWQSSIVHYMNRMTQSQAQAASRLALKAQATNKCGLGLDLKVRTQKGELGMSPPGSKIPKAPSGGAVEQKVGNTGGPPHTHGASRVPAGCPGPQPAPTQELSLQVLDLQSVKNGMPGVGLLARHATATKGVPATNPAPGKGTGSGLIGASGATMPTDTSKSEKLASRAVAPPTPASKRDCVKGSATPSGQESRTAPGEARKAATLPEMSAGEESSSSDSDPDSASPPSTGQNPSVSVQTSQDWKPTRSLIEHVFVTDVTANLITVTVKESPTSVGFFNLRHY

[2] = target: Chromobox protein homolog 1 (Homo sapiens, UniProt P83916); assay: Binding affinity to CBX1 (unknown origin) assessed as dissociation constant by fluorescence polarization analysis
[3] = target: T2, Chromobox protein homolog 8 (Homo sapiens, UniProt Q9HC52); assay: Binding affinity to CBX8 (unknown origin) assessed as dissociation constant by fluorescence polarization analysis
T2 sequence (Q9HC52 whole entry): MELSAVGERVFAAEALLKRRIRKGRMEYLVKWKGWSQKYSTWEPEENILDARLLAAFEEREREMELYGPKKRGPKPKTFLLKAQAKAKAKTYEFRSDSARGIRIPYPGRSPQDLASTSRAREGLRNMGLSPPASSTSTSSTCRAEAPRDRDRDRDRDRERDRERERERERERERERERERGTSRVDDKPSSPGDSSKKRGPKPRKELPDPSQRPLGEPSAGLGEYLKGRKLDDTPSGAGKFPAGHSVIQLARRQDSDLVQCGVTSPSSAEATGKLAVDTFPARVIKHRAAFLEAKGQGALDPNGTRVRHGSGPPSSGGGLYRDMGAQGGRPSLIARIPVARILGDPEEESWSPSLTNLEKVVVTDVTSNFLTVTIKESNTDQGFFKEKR

[4] = target: T3, Chromobox protein homolog 6 (Homo sapiens, UniProt O95503); assay: Binding affinity to CBX6 (unknown origin) assessed as dissociation constant by fluorescence polarization analysis
T3 sequence (O95503 whole entry): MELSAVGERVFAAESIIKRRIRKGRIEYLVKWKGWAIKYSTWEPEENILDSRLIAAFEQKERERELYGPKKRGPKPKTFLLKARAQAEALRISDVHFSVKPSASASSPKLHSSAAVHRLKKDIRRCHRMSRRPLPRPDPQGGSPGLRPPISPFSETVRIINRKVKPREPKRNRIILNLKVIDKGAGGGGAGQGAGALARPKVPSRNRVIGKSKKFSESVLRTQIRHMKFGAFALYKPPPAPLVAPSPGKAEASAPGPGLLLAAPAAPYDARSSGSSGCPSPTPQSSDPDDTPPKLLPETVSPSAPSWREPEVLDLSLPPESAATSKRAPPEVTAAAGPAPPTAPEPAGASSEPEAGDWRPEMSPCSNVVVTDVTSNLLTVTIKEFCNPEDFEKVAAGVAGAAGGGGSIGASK

[5] = target: T4, Chromobox protein homolog 7 (Homo sapiens, UniProt O95931); assay: Binding affinity to CBX7 (unknown origin) assessed as dissociation constant by fluorescence polarization analysis
T4 sequence (O95931 whole entry): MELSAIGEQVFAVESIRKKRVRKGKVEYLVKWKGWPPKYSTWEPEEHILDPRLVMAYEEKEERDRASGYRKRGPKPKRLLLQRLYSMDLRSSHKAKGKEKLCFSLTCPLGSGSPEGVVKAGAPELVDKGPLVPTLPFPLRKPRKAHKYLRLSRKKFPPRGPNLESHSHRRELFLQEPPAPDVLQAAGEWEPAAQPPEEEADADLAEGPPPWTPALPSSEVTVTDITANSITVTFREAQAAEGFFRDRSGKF

[6] = species: Homo sapiens; assay: Selectivity ratio of Kd for CBX1 (unknown origin) to Kd for CBX8 (unknown origin)
[7] = target: T5, E3 SUMO-protein ligase CBX4 (Homo sapiens, UniProt O00257); assay: Binding affinity to CBX4 (unknown origin) assessed as dissociation constant by fluorescence polarization analysis
T5 sequence (O00257 whole entry): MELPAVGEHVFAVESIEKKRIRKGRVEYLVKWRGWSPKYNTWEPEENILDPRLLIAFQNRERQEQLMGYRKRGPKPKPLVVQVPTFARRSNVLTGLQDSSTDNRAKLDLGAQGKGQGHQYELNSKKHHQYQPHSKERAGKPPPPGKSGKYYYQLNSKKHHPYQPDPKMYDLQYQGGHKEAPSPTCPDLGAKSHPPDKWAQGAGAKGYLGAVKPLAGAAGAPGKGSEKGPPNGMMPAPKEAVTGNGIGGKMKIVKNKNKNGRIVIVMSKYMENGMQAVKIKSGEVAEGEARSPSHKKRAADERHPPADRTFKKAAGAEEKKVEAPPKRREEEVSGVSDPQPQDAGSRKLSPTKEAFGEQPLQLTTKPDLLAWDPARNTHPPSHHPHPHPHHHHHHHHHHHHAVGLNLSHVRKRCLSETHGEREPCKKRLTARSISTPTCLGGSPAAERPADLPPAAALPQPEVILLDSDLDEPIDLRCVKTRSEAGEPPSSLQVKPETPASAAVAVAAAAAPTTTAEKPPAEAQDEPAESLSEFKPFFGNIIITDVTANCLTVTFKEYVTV

[8] = species: Homo sapiens; assay: Selectivity ratio of Kd for CBX6 (unknown origin) to Kd for CBX8 (unknown origin)
[9] = species: Homo sapiens; assay: Selectivity ratio of Kd for CBX7 (unknown origin) to Kd for CBX8 (unknown origin)
[10] = species: Homo sapiens; assay: Selectivity ratio of Kd for CBX4 (unknown origin) to Kd for CBX8 (unknown origin)
[11] = species: Homo sapiens; assay: Selectivity ratio of Kd for CBX2 (unknown origin) to Kd for CBX8 (unknown origin)
[12] = species: Homo sapiens; assay: Selectivity ratio of Kd for CBX7 (unknown origin) to Kd for CBX6 (unknown origin)

Chain of Chromobox protein homolog 1 (P83916 whole entry): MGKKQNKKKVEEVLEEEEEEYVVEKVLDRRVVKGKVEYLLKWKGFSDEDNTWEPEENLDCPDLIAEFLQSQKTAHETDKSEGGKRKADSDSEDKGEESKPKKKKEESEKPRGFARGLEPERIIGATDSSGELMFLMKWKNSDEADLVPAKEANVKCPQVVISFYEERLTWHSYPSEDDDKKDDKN

SMILES | Kd [1] [nM] | Kd [2] [nM] | Kd [3] [nM] | Kd [4] [nM] | Kd [5] [nM] | Selectivity ratio [6] | Kd [7] [nM] | Selectivity ratio [8] | Selectivity ratio [9] | Selectivity ratio [10] | Selectivity ratio [11] | Selectivity ratio [12]
CC[C@H](NC(=O)[C@H](Cc1ccccc1)NC(=O)c1ccc(Br)cc1)C(=O)N[C@@H](Cc1ccccc1)C(=O)N[C@@H](CCCC[N+](C)(C)C)C(=O)N[C@@H](CO)C(=O)N[C@@H](CCC(=O)O)C(=O)N[C@@H](CCCCNC(=S)Nc1ccc(-c2c3ccc(=O)cc-3oc3cc(O)ccc23)c(C(=O)O)c1)C(N)=O ({Benzoyl(4-Br)}-F[Abu]F[Lys(Me3)]SEK(X1)-NH2) | 1500 | 180000 | 960 | 800 | 300 |  | 700 |  |  |  |  | 
CC[C@H](NC(=O)[C@H](Cc1ccccc1)NC(=O)[C@H](Cc1ccccc1)NC(C)=O)C(=O)N[C@H](C(=O)N[C@@H](CCCC[N+](C)(C)C)C(=O)N[C@@H](CO)C(=O)N[C@@H](CCC(=O)O)C(=O)N[C@@H](CCCCNC(=S)Nc1ccc(-c2c3ccc(=O)cc-3oc3cc(O)ccc23)c(C(=O)O)c1)C(N)=O)C1CCCC1 (Ac-FF[Abu][Gly(cPent)][Lys(Me3)]SEK(X1)-NH2) | 10000 | 99000 | 700 | 400 | 1500 | 14 to 135 | 11300 |  | 2 | 14 to 135 | 14 to 135 | 4
CC(=O)N[C@@H](Cc1ccccc1)C(=O)N[C@@H](Cc1ccccc1)C(=O)N[C@@H](C)C(=O)N[C@@H](CC(C)C)C(=O)N[C@@H](CCCC[N+](C)(C)C)C(=O)N[C@@H](CO)C(=O)N[C@@H](CCC(=O)O)C(=O)N[C@@H](CCCCNC(=S)Nc1ccc(-c2c3ccc(=O)cc-3oc3cc(O)ccc23)c(C(=O)O)c1)C(N)=O (Ac-FFAL[Lys(Me3)]SEK(X1)-NH2) | 18000 | 110000 | 2600 | 1000 | 1500 |  | 15000 |  |  |  |  | 

These reach a lower Kd [1]. Values come first.

Kd [1] [nM] | Kd [2] [nM] | Kd [3] [nM] | Kd [4] [nM] | Kd [5] [nM] | Selectivity ratio [6] | Kd [7] [nM] | Selectivity ratio [8] | Selectivity ratio [9] | Selectivity ratio [10] | Selectivity ratio [11] | Selectivity ratio [12] | SMILES
1100 | 2500 | 4500 | 900 | 700 |  | 800 |  |  |  |  |  | CC(C)C[C@H](NC(=O)[C@H](C)NC(=O)[C@H](Cc1ccccc1)NC(=O)CCNC(=S)Nc1ccc(-c2c3ccc(=O)cc-3oc3cc(O)ccc23)c(C(=O)O)c1)C(=O)N[C@@H](CCCC[N+](C)(C)C)C(=O)N[C@@H](CO)C(N)=O ({X1-βAla}-FAL[Lys(Me3)]S-NH2)
390 | 3200 | 120 | 350 | 160 | 26 | 600 | 3 | 2 | 5 | 3 |  | CC[C@H](NC(=O)[C@H](Cc1ccccc1)NC(=O)c1ccc(Br)cc1)C(=O)N[C@H](C(=O)N[C@@H](CCCC[N+](C)(C)C)C(=O)N[C@@H](CO)C(=O)N[C@@H](CCC(=O)O)C(=O)N[C@@H](CCCCNC(=S)Nc1ccc(-c2c3ccc(=O)cc-3oc3cc(O)ccc23)c(C(=O)O)c1)C(N)=O)C1CCCC1 ({Benzoyl(4-Br)}-F[Abu][Gly(cPent)][Lys(Me3)]SEK(X1)-NH2)
